According to PubChem BioAssay (NCI):
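Grown in 96-well plates, cells were treated for 48 hours with each compound at five concentrations. Insufficient inhibition: endpoint recorded as highest concentration tested. The concentration for 50% growth inhibition is given as GI50. The concentration for full growth arrest is given as TGI.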

Tests used:
Assay in all cases: DTP human tumour cell line panel, 48 h
[1] = system: HL-60(TB) leukemia
[2] = system: HOP-62 NSCLC
[3] = system: LOX IMVI melanoma
[4] = system: MALME-3M melanoma
[5] = system: MCF7 breast
[6] = system: SF-268 CNS
[7] = system: SNB-19 CNS
[8] = system: SR leukemia
[9] = system: SW-620 colon
[10] = system: UO-31 renal

## CN(C)c1ccc(/C=N/N=C(\C#N)[S][Sn]([Cl])([c]2ccccc2)[c]2ccccc2)cc1
[1]
  GI50: 548 nM
  TGI: 5.16 µM
[2]
  GI50: 2.63 µM
  TGI: 6.02 µM
[3]
  GI50: 1.04 µM
  TGI: 2.31 µM
[4]
  GI50: 1.74 µM
  TGI: 3.6 µM
[5]
  GI50: 283 nM
  TGI: 1.35 µM
[6]
  GI50: 1.51 µM
  TGI: 3.06 µM
[7]
  GI50: 1.99 µM
  TGI: 3.65 µM
[8]
  GI50: 1.57 µM
  TGI: 8.57 µM
[9]
  GI50: 0.853 µM
  TGI: 2.45 µM
[10]
  GI50: 1.58 µM
  TGI: 3.08 µM

## O=c1c(Oc2ccc(F)cc2F)cc2cnc(NC3CCOCC3)nc2n1C1CC1
[1]
  GI50: > 25000 nM
  TGI: > 25 µM
[2]
  GI50: > 25 µM
  TGI: > 25 µM
[3]
  GI50: > 25 µM
  TGI: > 25 µM
[4]
  GI50: > 25 µM
  TGI: > 25 µM
[5]
  GI50: > 25000 nM
  TGI: > 25 µM
[6]
  GI50: > 25 µM
  TGI: > 25 µM
[7]
  GI50: > 25 µM
  TGI: > 25 µM
[8]
  GI50: > 25 µM
  TGI: > 25 µM
[9]
  GI50: > 25 µM
  TGI: > 25 µM
[10]
  GI50: 2.21 µM
  TGI: 10.2 µM

## COc1ccc(Cn2c(Br)c3c(c2-c2cc(OC)c(OC)c(OC)c2)CCc2sc(N)nc2-3)cc1
[1]
  GI50: 465 nM
  TGI: 3.67 µM
[2]
  GI50: 1.33 µM
  TGI: > 47 µM
[3]
  GI50: 0.869 µM
  TGI: 6.14 µM
[4]
  GI50: 0.438 µM
  TGI: 28.5 µM
[5]
  GI50: 371 nM
  TGI: 18.9 µM
[6]
  GI50: 1.73 µM
  TGI: 20.8 µM
[7]
  GI50: 3.97 µM
  TGI: > 100 µM
[8]
  GI50: 0.41 µM
  TGI: 5.67 µM
[9]
  GI50: 0.515 µM
  TGI: 7.65 µM
[10]
  GI50: 1.5 µM
  TGI: 17.9 µM

## CC1=C(C(=O)Nc2ccc3[nH]ncc3c2)C(c2ccc(F)cc2)N=C(c2ccc(C(F)(F)F)nc2)N1 (stereo unspecified)
[1]
  GI50: 6670 nM
  TGI: > 25 µM
[2]
  GI50: 10.1 µM
  TGI: > 25 µM
[3]
  GI50: 8.88 µM
  TGI: > 25 µM
[4]
  GI50: > 16.5 µM
  TGI: > 25 µM
[5]
  GI50: 7710 nM
  TGI: > 25 µM
[6]
  GI50: 10.7 µM
  TGI: > 25 µM
[7]
  GI50: > 23.6 µM
  TGI: > 25 µM
[8]
  GI50: 6.43 µM
  TGI: > 25 µM
[9]
  GI50: 11.6 µM
  TGI: > 25 µM
[10]
  GI50: 3.35 µM
  TGI: 24.4 µM

## C=C(C)c1nc(Oc2ccccc2)nc(Oc2ccccc2)n1
[1]
  TGI: 4.51 µM
[2]
  TGI: 25 µM
[3]
  TGI: 4.51 µM
[4]
  TGI: 27.6 µM
[5]
  TGI: 12.6 µM
[6]
  TGI: 16.2 µM
[7]
  TGI: 18.5 µM
[8]
  TGI: > 25.1 µM
[9]
  TGI: 15.7 µM
[10]
  TGI: 32.1 µM

## CC(C)c1ccc2c(c1)CCC1C2CCCC1(C)NCc1ccccc1 (stereo unspecified)
[1]
  GI50: 2340 nM
  TGI: 6.85 µM
[2]
  GI50: 8.94 µM
  TGI: 21.4 µM
[3]
  GI50: 2.27 µM
  TGI: 7.12 µM
[4]
  GI50: 1.92 µM
  TGI: 4.18 µM
[5]
  GI50: 2530 nM
  TGI: 6.76 µM
[6]
  GI50: 8.98 µM
  TGI: 26.1 µM
[7]
  GI50: 12.8 µM
  TGI: 26.4 µM
[8]
  GI50: 1.8 µM
  TGI: 6.3 µM
[9]
  GI50: 2.17 µM
  TGI: 6.1 µM
[10]
  GI50: 6.76 µM
  TGI: 21.1 µM

## FC(F)(F)c1cccc(CNC2CCN(CCc3ccccc3)CC2)c1
[1]
  GI50: 20900 nM
  TGI: 49 µM
[2]
  GI50: 37.5 µM
  TGI: > 100 µM
[3]
  GI50: 15.5 µM
  TGI: 29.1 µM
[4]
  GI50: 16 µM
  TGI: 31 µM
[5]
  GI50: 16000 nM
  TGI: 34.6 µM
[6]
  GI50: 40.3 µM
  TGI: > 100 µM
[7]
  GI50: 30.8 µM
  TGI: > 100 µM
[8]
  GI50: 15.1 µM
  TGI: 41.6 µM
[9]
  GI50: 36.9 µM
  TGI: > 100 µM
[10]
  GI50: 17 µM
  TGI: > 100 µM

## CCOC(=O)C#Cc1c(C(=O)OCC)nnn1[C@@H]1O[C@H](COC)[C@@H](OC)[C@H]1OC
[1]
  GI50: 1980 nM
  TGI: 5.41 µM
[2]
  GI50: 25.7 µM
  TGI: 63.1 µM
[3]
  GI50: 1.16 µM
  TGI: 2.58 µM
[4]
  GI50: 1.95 µM
  TGI: 3.9 µM
[5]
  GI50: 2850 nM
  TGI: 12.7 µM
[6]
  GI50: 16.3 µM
  TGI: 35.6 µM
[7]
  GI50: 69.4 µM
  TGI: > 100 µM
[8]
  GI50: 1.64 µM
  TGI: 4.66 µM
[9]
  GI50: 1.99 µM
  TGI: 4.06 µM
[10]
  GI50: 1.88 µM
  TGI: 4.38 µM

## CN1CCN(C(=O)/C=C/c2ccc([N+](=O)[O-])o2)CC1
[1]
  GI50: 10700 nM
  TGI: 34 µM
[2]
  GI50: 17.1 µM
  TGI: 39.9 µM
[3]
  GI50: 4.46 µM
  TGI: 17 µM
[4]
  GI50: 3.76 µM
  TGI: 14.3 µM
[5]
  GI50: 10900 nM
  TGI: 38.1 µM
[6]
  GI50: 20.9 µM
  TGI: 84.1 µM
[7]
  GI50: 38.1 µM
  TGI: > 100 µM
[8]
  GI50: 4.23 µM
  TGI: 75.1 µM
[9]
  GI50: 15.8 µM
  TGI: 37.1 µM
[10]
  GI50: 13.4 µM
  TGI: 30.1 µM

## COc1cc(/C=C/c2cc(/C=C/c3ccc(O)c(OC)c3)n(C(=O)Nc3ccc(C)cc3)n2)ccc1O
[1]
  GI50: 261 nM
  TGI: 0.657 µM
[2]
  GI50: 0.759 µM
  TGI: 2.5 µM
[3]
  GI50: 0.501 µM
  TGI: 2.62 µM
[4]
  GI50: 0.924 µM
  TGI: 3.57 µM
[5]
  GI50: 400 nM
  TGI: 2.97 µM
[6]
  GI50: 0.628 µM
  TGI: 7.44 µM
[7]
  GI50: 0.873 µM
  TGI: 9.11 µM
[8]
  GI50: 0.0268 µM
  TGI: 0.15 µM
[9]
  GI50: 0.465 µM
  TGI: 3.44 µM
[10]
  GI50: 0.272 µM
  TGI: 1.72 µM

## C/C(=C\c1csc(C)n1)[C@@H]1C[C@@H]2O[C@]2(C)CCC[C@H](C)[C@H](O)[C@@H](C)C(=O)C(C)(C)[C@@H](O)CC(=O)N1
[1]
  GI50: 0.083 nM
  TGI: 0.000163 µM
[2]
  GI50: 0.000352 µM
  TGI: 0.000508 µM
[3]
  GI50: 0.00012 µM
  TGI: 0.000226 µM
[4]
  GI50: 0.000376 µM
  TGI: 0.000603 µM
[5]
  GI50: 0.0795 nM
  TGI: 0.00037 µM
[6]
  GI50: 0.000215 µM
  TGI: 0.000446 µM
[7]
  GI50: 0.000347 µM
  TGI: 0.000508 µM
[8]
  GI50: 0.00102 µM
  TGI: 0.00332 µM
[9]
  GI50: 0.00016 µM
  TGI: 0.00042 µM
[10]
  GI50: 0.000126 µM
  TGI: 0.000177 µM

## O=S(=O)(Nc1ccccc1)c1ccc(C2CC3(Cl)C(Cl)=C(Cl)C2(Cl)C3(Cl)Cl)cc1 (stereo unspecified)
[1]
  GI50: 2420 nM
  TGI: 5.79 µM
[2]
  GI50: 2.52 µM
  TGI: 5.93 µM
[3]
  GI50: 1.84 µM
  TGI: 3.47 µM
[4]
  GI50: 2.53 µM
  TGI: 7.11 µM
[5]
  GI50: 2590 nM
  TGI: 7.67 µM
[6]
  GI50: 3.8 µM
  TGI: 12.8 µM
[7]
  GI50: 3.74 µM
  TGI: 13.6 µM
[8]
  GI50: 2.08 µM
  TGI: 5.2 µM
[10]
  GI50: 2.09 µM
  TGI: 6.72 µM

## C=CCN(CC=C)Cc1c[nH]c2ccccc12
[1]
  GI50: 84200 nM
  TGI: > 100 µM
[3]
  GI50: 27.4 µM
  TGI: > 100 µM
[4]
  GI50: 7.83 µM
  TGI: 67.7 µM
[5]
  GI50: 3000 nM
  TGI: 19.7 µM
[6]
  GI50: 11.5 µM
  TGI: 32.5 µM
[7]
  GI50: > 100 µM
  TGI: > 100 µM
[8]
  GI50: 30.3 µM
  TGI: > 100 µM
[9]
  GI50: 26.3 µM
  TGI: > 100 µM
[10]
  GI50: 35.2 µM
  TGI: > 100 µM
